{"source": "patent US12649750B2", "about": "“Macrocyclic compounds, compositions, and methods of using thereof” (Sionna Therapeutics Inc., priority 2022, dated 2026)"}
{"target": "T1, NBD1 (Homo sapiens, UniProt P13569)", "T1 construct": "Purified recombinant NBD1 was produced using previously described methods; made in house", "T1 sequence (P13569 423-646 limits assumed)": "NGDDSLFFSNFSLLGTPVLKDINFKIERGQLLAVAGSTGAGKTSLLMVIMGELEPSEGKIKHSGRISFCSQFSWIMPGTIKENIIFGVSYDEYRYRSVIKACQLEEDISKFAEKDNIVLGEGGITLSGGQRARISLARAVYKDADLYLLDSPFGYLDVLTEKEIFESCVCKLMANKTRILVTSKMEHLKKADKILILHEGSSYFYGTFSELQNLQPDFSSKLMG", "experiment": "Aggregation analysis using differential static light scattering (DSLS), thermal stability of NBD1 (ΔTagg)", "type": "binding", "details": "ΔTagg versus DMSO control, NBD1 0.2 mg/ml", "outline": "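Purified recombinant NBD1 at 0.2 mg/ml in Tris buffer pH7.6 with 2 mM ATP, 5 mM MgCl2, 2 mM DTT and 1% glycerol was mixed with DMSO-dissolved compounds under mineral oil. Plates were heated at 1° C. per minute to 70° C., light scattering imaged every 0.5° C.; Tagg from curve inflection, minus DMSO-control mean.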"}
{"smiles": "CNC(=O)[C@@H](C)Cc1cccc([C@@]2(C)CCCC(C)(C)CS(=O)(=O)CC(NC)c3c(c(F)cc4[nH]ccc34)Sc3ccc(F)c(c3)-c3nc2nn3C)c1", "note": "(single isomer, unassigned) [Compound 368B]", "DSLS 3D (100 μM ΔT)": "A (an ΔTagg value less than or equal to 5 °C is marked “A”)"}
{"smiles": "CC(=O)NC1CS(=O)(=O)CC(C)(C)CCC[C@](C)(c2cccc(C[C@@H](C)C(=O)O)c2)c2nc(n(C)n2)-c2cc(ccc2F)Oc2c(F)c(F)c3[nH]ccc3c21", "note": "(single isomer, unassigned) [Compound 369A]", "DSLS 3D (100 μM ΔT)": "C (a value greater than 10 °C and less than or equal to 25 °C is marked “C”)"}
{"smiles": "CC(=O)NC1CS(=O)(=O)CC(C)(C)CCC[C@](C)(c2cccc(C[C@@H](C)C(=O)O)c2)c2nc(n(C)n2)-c2cc(ccc2F)Oc2c(F)c(F)c3[nH]ccc3c21", "note": "(single isomer, unassigned) [Compound 369B]", "DSLS 3D (100 μM ΔT)": "B (a value above 5 °C and less than or equal to 10 °C is marked “B”)"}
{"smiles": "C[C@@H](Cc1cccc([C@@]2(C)CCCC(C)(C)CS(=O)(=O)CC(N)c3c(c(F)cc4[nH]ccc34)Sc3ccc(F)c(c3)-c3nc2nn3C)c1)C(N)=O", "note": "(single isomer, unassigned) [Compound 370A]", "DSLS 3D (100 μM ΔT)": "B (a value above 5 °C and less than or equal to 10 °C is marked “B”)"}
{"smiles": "C[C@@H](Cc1cccc([C@@]2(C)CCCC(C)(C)CS(=O)(=O)CC(N)c3c(c(F)cc4[nH]ccc34)Sc3ccc(F)c(c3)-c3nc2nn3C)c1)C(N)=O", "note": "(single isomer, unassigned) [Compound 370B]", "DSLS 3D (100 μM ΔT)": "A (an ΔTagg value less than or equal to 5 °C is marked “A”)"}
{"smiles": "COCC(Cc1cccc([C@@]2(C)CCCC(C)(C)CS(=O)(=O)CCc3c(c(F)c(F)c4[nH]ccc34)[S+]([O-])c3ccc(F)c(c3)-c3nc2nn3C)c1)C(=O)O", "note": "(single isomer, unassigned) [Compound 371]", "DSLS 3D (100 μM ΔT)": "B (a value above 5 °C and less than or equal to 10 °C is marked “B”)"}
{"smiles": "COCC(Cc1cccc([C@@]2(C)CCCC(C)(C)CS(=O)(=O)CCc3c(c(F)c(F)c4[nH]ccc34)[S+]([O-])c3ccc(F)c(c3)-c3nc2nn3C)c1)C(=O)O", "note": "(single isomer, unassigned) [Compound 372]", "DSLS 3D (100 μM ΔT)": "B (a value above 5 °C and less than or equal to 10 °C is marked “B”)"}
{"smiles": "COCC(Cc1cccc([C@@]2(C)CCCC(C)(C)CS(=O)(=O)CCc3c(c(F)c(F)c4[nH]ccc34)[S+]([O-])c3ccnc(c3)-c3nc2nn3C)c1)C(=O)O", "note": "(single isomer, unassigned) [Compound 374]", "DSLS 3D (100 μM ΔT)": "B (a value above 5 °C and less than or equal to 10 °C is marked “B”)"}
{"smiles": "COCC(Cc1cccc([C@@]2(C)CCCC(C)(C)CS(=O)(=O)CCc3c(c(F)c(F)c4[nH]ccc34)[S+]([O-])c3ccnc(c3)-c3nc2nn3C)c1)C(=O)O", "note": "(single isomer, unassigned) [Compound 375]", "DSLS 3D (100 μM ΔT)": "B (a value above 5 °C and less than or equal to 10 °C is marked “B”)"}
{"smiles": "C[C@H](Cc1cccc([C@@]2(C)CCCC(C)(C)CS(=O)(=O)CCc3c(c(F)cc4[nH]ccc34)[S+]([O-])c3cc(c(F)cc3N)-c3nc2nn3C)c1)C(=O)O", "note": "(single isomer, unassigned) [Compound 379A]", "DSLS 3D (100 μM ΔT)": "A (an ΔTagg value less than or equal to 5 °C is marked “A”)"}
{"smiles": "C[C@H](Cc1cccc([C@@]2(C)CCCC(C)(C)CS(=O)(=O)CCc3c(c(F)cc4[nH]ccc34)[S+]([O-])c3cc(c(F)cc3N)-c3nc2nn3C)c1)C(=O)O", "note": "(single isomer, unassigned) [Compound 379B]", "DSLS 3D (100 μM ΔT)": "A (an ΔTagg value less than or equal to 5 °C is marked “A”)"}
{"smiles": "C[C@H](Cc1cccc(C2NCCOCCS(=O)(=O)Cc3c(c(F)c(F)c4[nH]ccc34)Oc3ccc(F)c(c3)-c3nc2nn3C)c1)C(=O)O", "note": "(single isomer, unassigned) [Compound 381A]", "DSLS 3D (100 μM ΔT)": "A (an ΔTagg value less than or equal to 5 °C is marked “A”)"}
{"smiles": "C[C@H](Cc1cccc(C2NCCOCCS(=O)(=O)Cc3c(c(F)c(F)c4[nH]ccc34)Oc3ccc(F)c(c3)-c3nc2nn3C)c1)C(=O)O", "note": "(single isomer, unassigned) [Compound 381B]", "DSLS 3D (100 μM ΔT)": "A (an ΔTagg value less than or equal to 5 °C is marked “A”)"}
{"smiles": "C[C@H](Cc1cccc([C@@]2(C)CCCC(C)(C)CS(=O)(=O)CC(N)c3c(c(F)c(F)c4[nH]ccc34)Oc3ccc(F)c(c3)-c3nc2nn3C)c1)C(N)=O", "note": "(single isomer, unassigned) [Compound 385A]", "DSLS 3D (100 μM ΔT)": "B (a value above 5 °C and less than or equal to 10 °C is marked “B”)"}
{"smiles": "C[C@H](Cc1cccc([C@@]2(C)CCCC(C)(C)CS(=O)(=O)CC(N)c3c(c(F)c(F)c4[nH]ccc34)Oc3ccc(F)c(c3)-c3nc2nn3C)c1)C(N)=O", "note": "(single isomer, unassigned) [Compound 385B]", "DSLS 3D (100 μM ΔT)": "A (an ΔTagg value less than or equal to 5 °C is marked “A”)"}
{"smiles": "O=C(O)CCc1cccc(C2CCCCCCS(=O)(=O)CCc3c(c(F)cc4[nH]ccc34)Oc3ccc(F)c(c3)-c3ncc2[nH]3)c1", "note": "(centres unmarked) [Compound 35, 3-[3-(23,29-Difluoro-13,13-dioxo-25-oxa-13λ6-thia-3,20,31-triazapentacyclo[24.3.1.12,5.016,24.017,21]hentriaconta-1(30),2,4,16,18,21,23,26,28-nonaen-6-yl)phenyl]propanoic Acid]", "DSLS 3D (100 μM ΔT)": "C (a value greater than 10 °C and less than or equal to 25 °C is marked “C”)"}
{"smiles": "O=C(O)CCc1cccc(C2CCCCCS(=O)(=O)CCc3c(c(F)cc4[nH]ccc34)Oc3ccc(F)c(c3)-c3ncc2[nH]3)c1", "note": "(centres unmarked) [Compound 36, 3-[3-(22,28-Difluoro-12,12-dioxo-24-oxa-12λ6-thia-3,19,30-triazapentacyclo[23.3.1.12,5.015,23.016,20]triaconta-1(29),2,4,15,17,20,22,25,27-nonaen-6-yl)phenyl]propanoic Acid]", "DSLS 3D (100 μM ΔT)": "C (a value greater than 10 °C and less than or equal to 25 °C is marked “C”)"}
{"smiles": "CN1CCS(=O)(=O)CCC(C)(c2cccc(CCC(=O)O)c2)c2cnc([nH]2)-c2cc(ccc2F)Oc2c(F)cc3[nH]ccc3c2CC1=O", "note": "(centres unmarked) [Compound 38, 3-[3-(22,28-Difluoro-6,12-dimethyl-9,9,13-trioxo-24-oxa-9λ6-thia-3,12,19,30-tetrazapentacyclo[23.3.1.12,5.015,23.016,20]triaconta-1(29),2,4,15,17,20,22,25,27-nonaen-6-yl)phenyl]propanoic Acid]", "DSLS 3D (100 μM ΔT)": "C (a value greater than 10 °C and less than or equal to 25 °C is marked “C”)"}
{"smiles": "CN1CCS(=O)(=O)CCC(C)(c2cccc(CCC(=O)O)c2)c2cnc([nH]2)-c2cc(ccc2F)Oc2c(F)cc3[nH]ccc3c2CCC1=O", "note": "(centres unmarked) [Compound 39, 3-[3-(23,29-Difluoro-6,12-dimethyl-9,9,13-trioxo-25-oxa-9λ6-thia-3,12,20,31-tetrazapentacyclo[24.3.1.12,5.016,24.017,21]hentriaconta-1(30),2,4,16,18,21,23,26,28-nonaen-6-yl)phenyl]propanoic Acid]", "DSLS 3D (100 μM ΔT)": "B (a value above 5 °C and less than or equal to 10 °C is marked “B”)"}
{"smiles": "CC1(C)CCCC(C)(c2cccc(CCC(=O)O)c2)c2csc(n2)-c2cc(ccc2F)Oc2c(F)cc3[nH]ccc3c2CCS(=O)(=O)C1", "note": "(centres unmarked) [Compound 49, 3-[3-(22,28-Difluoro-6,10,10-trimethyl-12,12-dioxo-24-oxa-3,12lambda6-dithia-19,30-diazapentacyclo[23.3.1.12,5.015,23.016,20]triaconta-1(29),2(30),4,15,17,20,22,25,27-nonaen-6-yl)phenyl]propanoic acid]", "DSLS 3D (100 μM ΔT)": "C (a value greater than 10 °C and less than or equal to 25 °C is marked “C”)"}
